3 compounds from US11248234B2, “Herbicide-resistant hydroxyphenylpyruvate dioxygenases” (BASF SE, priority 2015, dated 2022) can be followed below.

The test system of assay [1] is Scenedesmus HPPD with glutamine 317 exchanged to methionine, alanine 318 substituted by glycine and glutamate 345 mutated to glutamin. Nature of the assay: In vitro HPPD activity assay. In kind it is biochemical, Scenedesmus obliquus. Conditions: in words, from Table 6 data. On the procedure:
HPPD produces homogentisic acid and CO2 from 4-hydroxyphenylpyruvate (4-HPP) and O2. The activity assay for HPPD is based on the analysis of homogentisic acid by reversed phase HPLC.
The assay mixture can contain 150 mM potassium phosphate buffer pH 7.0, 50 mM L-ascorbic acid, 100 μM Catalase (Sigma-Aldrich), 1 μM FeSO4 and 0.2 units of purified mutated HPPD enzyme in a total volume of 505 μl. 1 unit is defined as the amount of enzyme that is required to produce 1 nmol of HGA per minute at 20° C.
After a preincubation of 30 min the reaction is started by adding 4-HPP to a final concentration of 0.05 mM. The reaction is allowed to proceed for 45 min at room temperature. The reaction is stopped by the addition of 50 μl of 4.5 M phosphoric acid. The sample is filtered using a […] pore size PVDF filtration device.
5 μl of the cleared sample is analyzed on an UPLC HSS T3 column (particle size 1.8 μm, dimensions 2.1×50 mm; Waters) by isocratic elution using 90% 20 mM NaH2PO4 pH 2.2, 10% methanol (v/v).
HGA is detected electrochemically at 750 mV (mode: DC; polarity: positive) and quantified by integrating peak areas (Empower software; Waters).
Inhibitors are dissolved in DMSO (dimethylsulfoxide) to a concentration of 0.5 mM. From this stock solution serial five-fold dilutions are prepared in DMSO, which are used in the assay. […] IC50 values are calculated using non-linear regression. […]

The test system of assay [2] is T2 Arabidopsis plants expressing mutated variants of Scenedesmus HPPD (all traits and events). As to the kind of experiment: Greenhouse spray test, injury evaluation. Type of assay: in vivo, Arabidopsis thaliana. The settings on record: for leaf damage: two lowest application rates (1.56 g/ha and 6.25 g/ha). On the procedure: (§1) Non-transgenic control plants were treated in parallel and pictures taken 14 days after treatment.
(§2) For post emergence treatment, the test plants are first grown to a height of 3 to 15 cm, depending on the plant habit, and only then treated with the herbicides. For this purpose, the test plants are either sown directly and grown in the same containers, or they are first grown separately and transplanted into the test containers a few days prior to treatment.
(§3) Additionally, T1 and T2 transgenic Arabidopsis plants can be tested for improved tolerance to HPPD-inhibiting herbicides in greenhouse studies. Herbicide injury scoring is done 2-3 weeks after treatment and is rated on a scale of 0 to 100%, 0% being no injury and 100% being complete death.
(§4) Transgenic T2 Arabidopsis plants were sprayed with a range of doses from 1.56-25 g/ha of different HPPD-inhibiting herbicides and injury evaluations were taken two weeks after treatment (FIG. 4). As depicted in Table 8, control plants were severely injured by all doses of herbicides applied, with at least 58% of leaf material being damaged at the lowest application rate and 100% leaf damage at the second application rate.

In assay [3] the test system is transgenic Arabidopsis plants (T2) SoHPPD I419V (short). As to the kind of experiment: Greenhouse spray test, injury evaluation. Conditions: for Injury: 14 DAT. Type of assay: in vivo, Arabidopsis thaliana. On the procedure: as §1, §2, §3, §4
In assay [4] the test system is Arabidopsis overexpression line SoHPPD (SEQ ID NO: 2). As to the kind of experiment: Germination assay in 48-well plates (tolerance factor). Conditions: plant growth IC50 transgenic / wildtype; mean of 5 T2 events; non-transgenic set to 1. Type of assay: in vivo, Arabidopsis thaliana. On the procedure:
(§5) Tolerance to HPPD-inhibiting herbicides can also be assessed in Arabidopsis. In this case transgenic Arabidopsis thaliana plants are assayed for improved tolerance to HPPD-inhibiting herbicides in 48-well plates (germination assay). Seeds are surface sterilized by stirring for 5 min in ethanol+water (70+30 by volume), rinsing one time with ethanol+water (70+30 by volume) and two times with a sterile, deionized water. The seeds are resuspended in 0.1% agar dissolved in water (w/v). Four to five seeds per well are plated on solid nutrient medium consisting of half-strength Murashige Skoog nutrient solution, pH 5.8 (Murashige and Skoog (1962) Physiologia Plantarum 15: 473-497). Compounds are dissolved in dimethylsulfoxid (DMSO) and added to the medium prior solidification (final DMSO concentration 0.1%). Multi well plates are incubated in a growth chamber at 22° C., 75% relative humidity and 110 μmol Phot*m−2*s−1 with 14:10 h light:dark photoperiod. Growth inhibition is evaluated seven to ten days after seeding in comparison to wild type plants. Tolerance factor is calculated by dividing the plant growth IC50 value of transgenic plants containing a HPPD sequence by that of wildtype plants.

Assay [5] deals with Arabidopsis overexpression line SoHPPD (SEQ ID NO: 4). The assay is described as above. Type of assay: in vivo, Arabidopsis thaliana. Conditions: plant growth IC50 transgenic / wildtype; mean of 5 T2 events; non-transgenic set to 1. On the procedure: as §5
Assay [6] has as its system Arabidopsis overexpression line SoHPPD I419V (short). Described as above. In kind it is in vivo, Arabidopsis thaliana. The settings on record: plant growth IC50 transgenic / wildtype; mean of 5 T2 events; non-transgenic set to 1. On the procedure: as §5
Assay [7] has as its system Arabidopsis overexpression line SoHPPD I455V. Described as above. Type of assay: in vivo, Arabidopsis thaliana. Conditions: plant growth IC50 transgenic / wildtype; mean of 5 T2 events; non-transgenic set to 1. On the procedure:
as §5

Assay [8] deals with Arabidopsis overexpression line SoHPPD Q317H (short). The assay is described as above. Type of assay: in vivo, Arabidopsis thaliana. Conditions: plant growth IC50 transgenic / wildtype; mean of 5 T2 events; non-transgenic set to 1. On the procedure:
as §5

For assay [9], the system named is Arabidopsis overexpression line SoHPPD Q317H, A318G, E345Q (short). Described as above. In kind it is in vivo, Arabidopsis thaliana. Conditions: plant growth IC50 transgenic / wildtype; mean of 5 T2 events; non-transgenic set to 1. On the procedure: as §5
Assay [10] deals with Arabidopsis overexpression line SoHPPD_F363I (short). The description is as above. In kind it is in vivo, Arabidopsis thaliana. Conditions: plant growth IC50 transgenic / wildtype; mean of 5 T2 events; non-transgenic set to 1. On the procedure: as §5

`CCS(=O)(=O)c1cc(C(F)(F)F)ccc1C1=C(O)c2ncccc2C(C)(C)S1(=O)=O` [Inhibitor 4, 7-[2-ethylsulfonyl-4-(trifluoromethyl)phenyl]-5,5-dimethyl-6,6-dioxo-thiopyrano[4,3-b]pyridin-8-ol]: the “resistance of the enzyme to the inhibitor” value in assay [1] is listed as “conferred resistance”.

Regarding `CS(=O)(=O)c1ccc(C(=O)C2C(=O)CCCC2=O)c([N+](=O)[O-])c1` [Inhibitor 2, 2-(4-methylsulfonyl-2-nitro-benzoyl)cyclohexane-1,3-dione], the leaf damage entry in assay [2] is listed as “did not show leaf injury”. The same compound displayed an average injury rate in assay [3] (25 g ai/ha, average of events) of 75%. The Injury in assay [3] (Event G, 1.56 g ai/ha) came out at 0%; in assay [3] (Event G, 6.25 g ai/ha), 0%; in [3] (Event G, 25 g ai/ha) it was 95%; in [3] (Event H, 1.56 g ai/ha), 5%; in [3] (Event H, 6.25 g ai/ha) it was 8%; in assay [3] (Event H, 25 g ai/ha), 58%.

For `Cc1c(C(=O)c2cnn(C)c2O)ccc(S(C)(=O)=O)c1C1=NOCC1` [Inhibitor 1, [3-(4,5-dihydroisoxazol-3-yl)-2-methyl-4-methylsulfonyl-phenyl]-(5-hydroxy-1-methyl-pyrazol-4-yl)methanone], the Tolerance factor was 92 in [4]; 82 in assay [5]; 100 in assay [6]; 7 in assay [7]; 100 in assay [8]; 50 in assay [9]. The compound further returned a Tolerance factor in [10] of 1000. In assay [2] (25 g/ha), the “leaf material being damaged” value is “less than 20%”. In addition, the leaf damage in assay [2] is 0-8%. Further, the Injury in [3] (Event G, 1.56 g ai/ha) was determined as 5%; in assay [3] (Event G, 6.25 g ai/ha) it was 8%; in assay [3] (Event G, 25 g ai/ha) it was 13%; in assay [3] (Event H, 1.56 g ai/ha), 0%; in assay [3] (Event H, 6.25 g ai/ha) it was 0%; in assay [3] (Event H, 25 g ai/ha) it was 13%.
